Entries after “also recorded” stand apart in the source; their conditions may differ.
Legend:
[1] = Solubility of LR12 in formulations / screening of solubility aids; type: physicochemical
Experimental: Briefly, to reduce the formation of disulfide bridges, the pH during the formulation process was reduced to below 6.0. However, LR12 contains 4 acidic, negatively charged amino acids, namely glutamate (Glu) and aspartate (Asp) and no basic amino acids.
To solve this problem, solubility aids were screened at pH 5.5 and 6.5.
The purified substance of LR12 peptide (of example 2) is formulated using the following excipients: 50 mM sodium citrate pH 5.5; 50 mM NaCl.
The purified substance of LR12 peptide (of example 2) is formulated using the following excipients: 50 mM sodium phosphate pH 6.5; 50 mM NaCl.
The purified substance of LR12 peptide (of example 2) is formulated using the following excipients: 50 mM sodium citrate pH 5.5; 200 mM mannitol.
The purified substance of LR12 peptide (of example 2) is formulated using the following excipients: 50 mM sodium citrate pH 5.5; 150 mM betaine.
The purified substance of LR12 peptide (of example 2) is formulated using the following excipients: 5 0 mM sodium citrate pH 5.5; 50 mM lysine; 50 mM NaCl.
The purified substance of LR12 peptide (of example 2) is formulated using the following excipients: 50 mM sodium citrate pH 5.5; 50 mM arginine.
The purified substance of LR12 peptide (of example 2) is formulated using the following excipients: 25 mM sodium citrate pH 5.5; 225 mM arginine; 65 mM HCl.
Formulations using incremental concentrations of the purified substance of LR12 peptide (of example 2) and incremental concentrations of the following excipients: Arginine 90 to 420 mM, using only HCl for pH adjustment to 5.5.

[2] = test system: TREM-1 signaling; conditions: Derive et al., 2012; cited from earlier work
[3] = test system: adult minipig model of induced sepsis; conditions: after induction of fecal peritonitis; Derive et al., 2013; cited from earlier work
[4] = test system: TREM-1 pathway; assay: ROS production by LPS-stimulated human primary neutrophils (DCFDA, flow cytometry, MFI); type: cell-based; conditions: for decrease of LPS-induced ROS production: 100 ng/mL LPS, 2 hours, 37 °C, LR12 or LR12-dimer 10 and 50 μg/mL; for TREM-1 inhibiting property / biological activity: preclinical in vitro pharmacology model
Experimental: FIG. 1 is a graph showing the results from flow cytometric quantification (DCFDA reduction) of neutrophils ROS production after 2 hours stimulation with LPS, LPS+10 μg/mL LR12, LPS+50 μg/mL LR12, LPS+10 μg/mL LR12-dimer (dimer), LPS+50 μg/mL LR12-dimer (dimer). […]; **p<0.01 (T test).
Neutrophils produce reactive oxygen species (ROS) in presence of LPS (lipopolysaccharides) following activation of the TREM-1 pathway and are thus used in the present example in order to assess TREM-1 activation and the biological activity of the LR12 dimer on the TREM-1 pathway. ROS production induced by TREM-1 activation and its modulation by LR12 can be quantified by flow cytometry. Any decrease in ROS production by LR12 (LPS+LR12 conditions) translates into a decrease in mean fluorescence intensity (MFI) as compared to the ROS production observed following the TREM-1 activation in presence of LPS (LPS condition).
Primary human neutrophils were isolated from the peripheral blood of healthy donors by immunomagnetic negative cell sorting with EasySep™ Human Monocyte/Neutrophil Isolation Kits (StemCell, Canada) following the manufacturer's instructions. Purity was assessed by flow cytometry. Cells were suspended in RPMI 1640 medium containing GlutaMAX and supplemented with 10% FCS, 25 mM HEPES, 100 U/ml penicillin and streptomycin before stimulation. Human primary neutrophils were incubated in resting conditions (also referred to as control conditions or ctrl 2), or with 100 ng/mL LPS from E. coli serotype 0127: B8 (Sigma-Aldrich), with or without LR12 or LR12-dimer (dimer) at the indicated concentrations.
Upon cleavage of the acetate groups by intracellular esterases and oxidation, the nonfluorescent DCFDA is converted to the highly fluorescent 2′,7′-dichlorofluorescein (DCF). 2.5×10^5 isolated human neutrophils were incubated 2 hours at 37 °C-5% CO2 with 5 μM of DCFDA, with or without 100 ng/mL LPS, and with or without LR12 or LR12-dimer (dimer) at the indicated concentrations. Data were acquired using flow cytometry. Results are expressed as mean fluorescence intensity (MFI).

Structure (SMILES) | solubility below pH 5.0 ([1]; below pH 5.0) | solubility with solubility aids (no improvement) ([1]; pH 5.5 and 6.5, Tween 20, mannitol, sucrose, trehalose, betaine, urea, glutathione, ammonium acetate, citrate) | solubility ([1]; screened at pH 5.5 and 6.5, only by adding lysine or arginine or histidine, read-out: solubility reached with positively charged solubility enhancing agents) [mg/mL] | anti-inflammatory properties [2] | cardiovascular failure [3] | survival [3] | decrease of LPS-induced ROS production [4] | TREM-1 inhibiting property / biological activity [4] | TREM-1 inhibiting property / biological activity ([4]; listed as LR12-dimer)
CSCC[C@H](NC(=O)[C@H](CS)NC(=O)CNC(=O)[C@H](Cc1ccc(O)cc1)NC(=O)[C@H](CCC(=O)O)NC(=O)CNC(=O)[C@H](C)NC(=O)[C@H](CC(=O)O)NC(=O)[C@H](CCC(=O)O)NC(=O)[C@H](CCC(=O)O)NC(=O)[C@H](CCC(N)=O)NC(=O)[C@@H](N)CC(C)C)C(N)=O [LR12] | barely soluble below pH 5.0 | failed to improve the solubility of LR12 | 40 | exhibit anti-inflammatory properties by inhibiting TREM-1 signaling | reduced cardiovascular failure | improved survival | able to decrease in a dose-dependent manner the LPS-induced release of ROS | – | –
CSCC[C@H](NC(=O)[C@H](CSSC[C@H](NC(=O)CNC(=O)[C@H](Cc1ccc(O)cc1)NC(=O)[C@H](CCC(=O)O)NC(=O)CNC(=O)[C@H](C)NC(=O)[C@H](CC(=O)O)NC(=O)[C@H](CCC(=O)O)NC(=O)[C@H](CCC(=O)O)NC(=O)[C@H](CCC(N)=O)NC(=O)[C@@H](N)CC(C)C)C(=O)N[C@@H](CCSC)C(N)=O)NC(=O)CNC(=O)[C@H](Cc1ccc(O)cc1)NC(=O)[C@H](CCC(=O)O)NC(=O)CNC(=O)[C@H](C)NC(=O)[C@H](CC(=O)O)NC(=O)[C@H](CCC(=O)O)NC(=O)[C@H](CCC(=O)O)NC(=O)[C@H](CCC(N)=O)NC(=O)[C@@H](N)CC(C)C)C(N)=O [LR12 dimer] | – | – | – | – | – | – | not able to decrease the production of ROS by LPS-activated neutrophils | did not display any TREM-1 inhibiting property; also recorded: inactive in a preclinical in vitro pharmacology model; also recorded: biologically inactive | not able to induce any pharmacological inhibition of TREM-1

Source: patent US20260374817A1, “COMPOSITIONS COMPRISING TREM-1 INHIBITORS AND USES THEREOF” (INOTREM, priority 2023, published 2026)
